“And” between values parts separate entries of the source, which are not always exact repeats. Identical values can stand only once.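 Five compound concentrations were applied to cells in 96-well plates for 48 hours; endpoints were derived by simple linear interpolation of the resulting dose-response curve. GI50: concentration for 50% inhibition of growth. TGI denotes the concentration required for complete inhibition of growth.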
Assays:
Experiment in all cases: NCI-60 cell line screen, 48 h
[1] = test system: BT-549 breast
[2] = test system: HL-60(TB) leukemia
[3] = test system: K-562 leukemia
[4] = test system: MCF7 breast
[5] = test system: MDA-MB-231 breast
[6] = test system: NCI-H460 lung
[7] = test system: OVCAR-8 ovarian
[8] = test system: SK-MEL-2 melanoma
[9] = test system: SN12C renal
[10] = test system: SR leukemia

Row | SMILES | GI50 [1] | TGI [1] | GI50 [2] | TGI [2] | GI50 [3] | TGI [3] | GI50 [4] | TGI [4] | GI50 [5] | TGI [5] | GI50 [6] | TGI [6] | GI50 [7] | TGI [7] | GI50 [8] | TGI [8] | GI50 [9] | TGI [9] | GI50 [10] | TGI [10]
1 | COc1ccc(C[n+]2c3ccccc3n3c4ccc(N)cc4ccc32)c(OC)c1OC | 2.42 µM | 16.5 µM | 3.09 µM | 11.7 µM | 4.87 µM | > 100 µM | 1.11 µM | 26.1 µM | 9.25 µM | 31.7 µM | 3.54 µM | 18.2 µM | 6.48 µM | 32.5 µM | 3.78 µM | 14.8 µM | 0.626 µM | 11 µM | 2.75 µM | 19.2 µM
2 | NC1=NC(c2ccc(Cl)cc2)N(c2ccc(S(=O)(=O)Nc3ncccn3)cc2)C(N)=N1 (stereo not drawn) | – | > 100 µM | – | 1.08 µM | – | > 100 µM | – | > 100 µM | – | > 100 µM | – | > 100 µM | – | > 100 µM | – | > 100 µM | – | > 100 µM | – | > 100 µM
3 | Cc1oc2nc[nH]c(=O)c2c1C(=O)/C=C/c1ccc(Cl)cc1 | 2.24 µM | 6.55 µM | 2.64 µM | 7.78 µM | 1.82 µM | 11.3 µM | 1.39 µM | 12.3 µM | 2.64 µM | 14.6 µM | 2.56 µM | 7.03 µM | 2.67 µM | 31.9 µM | 3.13 µM | 12.3 µM | 2.79 µM | 14.2 µM | 1.51 µM | 6.3 µM
4 | O=c1oc2cc(N=Cc3ccccc3Cl)ccc2c2ccccc12 | – | > 100 µM | – | > 100 µM | – | > 100 µM | – | > 100 µM | – | > 100 µM | – | > 100 µM | – | > 100 µM | – | > 100 µM | – | > 100 µM | – | > 100 µM
5 | NC(=O)c1cc(-c2ccncc2)cc(-c2ccccc2)c1N | 22.5 µM | > 25 µM | > 25 µM | > 25 µM | > 20.1 µM | > 25 µM | > 25 µM | > 25 µM | 12.2 µM | > 25 µM | 22.6 µM | > 25 µM | 15.1 µM | > 25 µM | > 5.2 µM | > 17 µM | 12.9 µM | > 25 µM | 13.5 µM | > 25 µM
6 | COc1cc(NS(C)(=O)=O)ccc1Nc1c2ccccc2nc2c(C)cccc12 | 0.412 µM and 0.394 µM | 4.62 µM and 2.86 µM | 0.0403 µM and 0.046 µM | 0.889 µM and 0.669 µM | 0.272 µM and 0.276 µM | > 37.8 µM and 11.8 µM | 0.0248 µM and 0.0337 µM | 4.42 µM and 11.9 µM | 1.73 µM and 2.88 µM | 7.01 µM and 15.3 µM | 0.0175 µM and 0.022 µM | 1.1 µM and 1.08 µM | 0.233 µM and 0.23 µM | 7.08 µM and 11.6 µM | 6.54 µM and 1.72 µM | 20.8 µM and 10.4 µM | 0.0961 µM and 0.087 µM | 1.36 µM and 2.08 µM | < 0.0145 µM and 0.013 µM | 6.75 µM and 2.16 µM
7 | O=C(/C=C/C12c3ccccc3C(c3ccccc31)C1C(=O)N(c3ccccc3)C(=O)C12)c1ccc(Cl)cc1 (stereo not drawn) | 1.37 µM | 2.88 µM | 0.795 µM | 5.18 µM | 1.55 µM | > 100 µM | 0.885 µM | > 100 µM | 1.64 µM | 3.9 µM | 1.64 µM | 3.7 µM | 1.43 µM | > 100 µM | 2.48 µM | 5.86 µM | 2.34 µM | > 100 µM | 1.07 µM | > 100 µM
8 | O=C(CCN1CCOCC1)Nc1ccc(F)cc1F | – | > 100 µM | – | > 100 µM | – | > 100 µM | – | > 100 µM | – | > 100 µM | – | > 100 µM | – | > 100 µM | – | > 100 µM | – | > 100 µM | – | > 100 µM
9 | C=C1C(=O)O[C@H]2[C@H]1CC/C(Cn1cc(CNCCc3c[nH]c4ccc(Cl)cc34)nn1)=C\CC[C@@]1(C)O[C@@H]21 | 3.88 µM | 17 µM | 1.12 µM | 3.46 µM | 2.91 µM | 25.2 µM | 2.59 µM | 11.5 µM | 4.04 µM | 16.2 µM | 49.1 µM | > 100 µM | 11.8 µM | 29.1 µM | 10.3 µM | 26.1 µM | 2.54 µM | 8.24 µM | 3.01 µM | 9.66 µM
10 | Cn1cc(C2=C(c3c4n(c5ccccc35)CCCC4)C(=O)NC2=O)c2ccccc21 | > 18.5 µM | > 25 µM | 9.59 µM | > 25 µM | 5.32 µM | > 25 µM | 6.58 µM | > 25 µM | > 20.2 µM | > 25 µM | 9.9 µM | > 25 µM | > 18.4 µM | > 25 µM | 10.1 µM | > 25 µM | 15.1 µM | > 25 µM | 5.92 µM | > 25 µM
11 | CN(CCC#N)c1ccc(/C=C(\C#N)c2cccc(C(F)(F)F)c2)cc1 | 3.28 µM | 34.3 µM | 3 µM | > 100 µM | 2.69 µM | > 100 µM | 0.544 µM | > 100 µM | 4.56 µM | > 100 µM | 3.76 µM | > 100 µM | 3.99 µM | > 100 µM | 2.57 µM | 8.11 µM | 4.17 µM | > 100 µM | 2.52 µM | > 100 µM
12 | C/C=C(\C)c1cc(=O)c2c(C)cc3c(c2o1)C(=O)c1c(O)c(C2CC(C)(N(C)C)C(O)C(C)O2)cc(C2CC(N(C)C)C(O)C(C)O2)c1C3=O (stereo not drawn) | – | 0.735 µM | – | 6.82 µM | – | > 53.6 µM | – | 14.5 µM and 8.8 µM | – | 0.764 µM | – | – | – | – | 3.67 µM | 12.2 µM | – | – | – | 12 µM
13 | Cc1cc(=O)oc2c(CN3CCCCC3)c(O)ccc12 | – | > 100 µM | – | > 100 µM | – | > 100 µM | – | > 100 µM | – | > 100 µM | – | > 100 µM | – | > 100 µM | – | > 100 µM | – | > 100 µM | – | > 100 µM
14 | NC(C/[N+]([O-])=N/O)C(=O)O (stereo not drawn) | 4.46 µM and 9.57 µM and 9.78 µM | > 500 µM | – | > 100 µM and 176 µM | 29.5 µM and 11.2 µM and 15 µM | > 419 µM | 1.2 µM and 4.17 µM and 1.15 µM | > 100 µM and 295 µM | – | > 500 µM | – | > 78.3 µM and > 100 µM and 223 µM | – | > 100 µM and 459 µM | 115 µM | > 100 µM and 359 µM | 14.6 µM and > 100 µM and 10.5 µM | > 464 µM | – | > 228 µM
